Experimental data as given in patent publication US20100120884A1, “USE OF DITHIINE-TETRACARBOXIMIDES FOR CONTROLLING PHYTOPATHOGENIC FUNGI” (priority 2008, published 2010).

tested on: not listed separately; test: physchem; format: physicochemical; conditions: pH 2.7
Method: The determination of the logP values detailed in the tables and preparation examples hereinabove is carried out in accordance with EEC Directive 79/831 Annex V.A8 by means of HPLC (High Performance Liquid Chromatography) on a reversed-phase column (C 18). Temperature: 43° C.
The determination is carried out in the acidic range at pH 2.7, using 0.1% strength aqueous formic acid and acetonitrile (contains 0.1% formic acid) as eluents; linear gradient from 10% acetonitrile to 95% acetonitrile.
Calibration is carried out using unbranched alkan-2-ones (with 3 to 16 carbon atoms) with known logP values (determination of the logP values with reference to the retention times by linear interpolation between two successive alkanones).

| Compound | chromatographic logP | log P |
| --- | --- | --- |
| CC(C)(O)Cn1c(=O)c2sc3c(=O)n(CC(C)(C)O)c(=O)c3sc2c1=O [Compound 34, 2,6-Bis(2-hydroxy-2-methylpropyl)-1H,5H-[1,4]dithiino[2,3-c:5,6-c′]dipyrrole-1,3,5,7(2H,6H)-tetrone] | 3.65 | – |
| CC(C)n1c(=O)c2sc3c(=O)n(C(C)C)c(=O)c3sc2c1=O [Compound 4, 2,6-Di(propan-2-yl)-1H,5H-[1,4]dithiino[2,3-c:5,6-c′]dipyrrole-1,3,5,7(2H,6H)-tetrone] | 4.19 | – |
| COCCn1c(=O)c2sc3c(=O)n(CCOC)c(=O)c3sc2c1=O [Compound 12, 2,6-Bis(2-methoxyethyl)-1H,5H-[1,4]dithiino[2,3-c:5,6-c′]dipyrrole-1,3,5,7(2H,6H)-tetrone] | 2.55 | – |
| CC(O)Cn1c(=O)c2sc3c(=O)n(CC(C)O)c(=O)c3sc2c1=O (centres unmarked) [Compound 14, 2,6-Bis(2-hydroxypropyl)-1H,5H-[1,4]dithiino[2,3-c:5,6-c′]dipyrrole-1,3,5,7(2H,6H)-tetrone] | 1.63 | – |
| O=c1[nH]c(=O)c2sc3c(=O)[nH]c(=O)c3sc12 [Compound 8, 1H,5H-[1,4]Dithiino[2,3-c:5,6-c′]dipyrrole-1,3,5,7(2H,6H)-tetrone] | 1.13 | – |
| CC(C(=O)O)n1c(=O)c2sc3c(=O)n(C(C)C(=O)O)c(=O)c3sc2c1=O (centres unmarked) [Compound 24, 2,2′-(1,3,5,7-Tetraoxo-1,3,5,7-tetrahydro-2H,6H-[1,4]dithiino[2,3-c:5,6-c′]dipyrrole-2,6-diyl)dipropanoic acid] | 1.76 | – |
| CCC(O)Cn1c(=O)c2sc3c(=O)n(CC(O)CC)c(=O)c3sc2c1=O (centres unmarked) [Compound 13, 2,6-Bis(2-hydroxybutyl)-1H,5H-[1,4]dithiino[2,3-c:5,6-c′]dipyrrole-1,3,5,7(2H,6H)-tetrone] | 2.27 | – |
| CCCCC(C(=O)OCC)n1c(=O)c2sc3c(=O)n(C(CCCC)C(=O)OCC)c(=O)c3sc2c1=O (centres unmarked) [Compound 40, Diethyl 2,2′-(1,3,5,7-tetraoxo-1,3,5,7-tetrahydro-2H,6H-[1,4]dithiino[2,3-c:5,6-e]dipyrrole-2,6-diyl)di-hexanoate] | – | log P = 4.66 |
| O=C(O)C(Cc1ccccc1)n1c(=O)c2sc3c(=O)n(C(Cc4ccccc4)C(=O)O)c(=O)c3sc2c1=O (centres unmarked) [Compound 32, 2,2′-(1,3,5,7-Tetraoxo-1,3,5,7-tetrahydro-2H,6H-[1,4]dithiino[2,3-c:5,6-c′]dipyrrole-2,6-diyl)bis(3-phenyl-propanoic acid)] | 3.12 | – |
| CC(CC(=O)O)n1c(=O)c2sc3c(=O)n(C(C)CC(=O)O)c(=O)c3sc2c1=O (centres unmarked) [Compound 28, 3,3′-(1,3,5,7-Tetraoxo-1,3,5,7-tetrahydro-2H,6H-[1,4]dithiino[2,3-c:5,6-c′]dipyrrole-2,6-diyl)dibutanoic acid] | 1.99 | – |
| O=C(O)CCCCn1c(=O)c2sc3c(=O)n(CCCCC(=O)O)c(=O)c3sc2c1=O [Compound 29, 5,5′-(1,3,5,7-Tetraoxo-1,3,5,7-tetrahydro-2H,6H-[1,4]dithiino[2,3-c:5,6-c′]dipyrrole-2,6-diyl)dipentanoic acid] | 2.02 | – |
| O=c1c2sc3c(=O)n(-c4cccc(C(F)(F)F)c4)c(=O)c3sc2c(=O)n1-c1cccc(C(F)(F)F)c1 [Compound 31, 2,6-Bis[3-(trifluoromethyl)phenyl]-1H,5H-[1,4]dithiino[2,3-c:5,6-c′]dipyrrole-1,3,5,7(2H,6H)-tetrone] | 4.91 | – |
| CCC(Cn1c(=O)c2sc3c(=O)n(CC(CC)OC(C)=O)c(=O)c3sc2c1=O)OC(C)=O (centres unmarked) [Compound 35, (1,3,5,7-Tetraoxo-1,3,5,7-tetrahydro-2H,6H-[1,4]dithiino[2,3-c:5,6-c′]dipyrrole-2,6-diyl)dibutane-1,2-diyl diacetate] | 3.09 | – |
| CCOC(=O)C(CC)n1c(=O)c2sc3c(=O)n(C(CC)C(=O)O)c(=O)c3sc2c1=O (centres unmarked) [Compound 41, 2-[2-(1-Ethoxy-1-oxobutan-2-yl)-1,3,5,7-tetraoxo-2,3,5,7-tetrahydro-1H,6H-[1,4]dithiino[2,3-c:5,6-c′]-dipyrrole-6-yl]butanoic acid] | 1.73 | – |
| CCn1c(=O)c2sc3c(=O)[nH]c(=O)c3sc2c1=O [Compound 39, 2-Ethyl-1H,5H-[1,4]dithiino[2,3-c:5,6-c′]dipyrrole-1,3,5,7(2H,6H)-tetrone] | 2.13 | – |
| O=c1c2sc3c(=O)n(CCOc4ccccc4)c(=O)c3sc2c(=O)n1CCOc1ccccc1 [Compound 15, 2,6-Bis(2-phenoxyethyl)-1H,5H-[1,4]dithiino[2,3-c:5,6-c′]dipyrrole-1,3,5,7(2H,6H)-tetrone] | 3.86 | – |
| CC(=O)OC(C)Cn1c(=O)c2sc3c(=O)n(CC(C)OC(C)=O)c(=O)c3sc2c1=O (centres unmarked) [Compound 36, (1,3,5,7-Tetraoxo-1,3,5,7-tetrahydro-2H,6H-[1,4]dithiino[2,3-c:5,6-c′]dipyrrole-2,6-diyl)dipropane-1,2-diyl diacetate] | 3.09 | – |
| O=c1c2sc3c(=O)n(Cc4ccccc4)c(=O)c3sc2c(=O)n1Cc1ccccc1 [Compound 11, 2,6-Dibenzyl-1H,5H-[1,4]dithiino[2,3-c:5,6-c′]dipyrrole-1,3,5,7(2H,6H)-tetrone] | 4.6 | – |
| CCOCCn1c(=O)c2sc3c(=O)n(CCOCC)c(=O)c3sc2c1=O [Compound 16, 2,6-Bis(2-ethoxyethyl)-1H,5H-[1,4]dithiino[2,3-c:5,6-c′]dipyrrole-1,3,5,7(2H,6H)-tetrone] | 3.24 | – |
| O=c1c2sc3c(=O)n(CC(F)(F)F)c(=O)c3sc2c(=O)n1CC(F)(F)F [Compound 6, 2,6-Bis(2,2,2-trifluoroethyl)-1H,5H-[1,4]dithiino[2,3-c:5,6-c′]dipyrrole-1,3,5,7(2H,6H)-tetrone] | 3.41 | – |
| O=c1c2sc3c(=O)n(C4(C(F)(F)F)CC4)c(=O)c3sc2c(=O)n1C1(C(F)(F)F)CC1 [Compound 7, 2,6-Bis[1-(trifluoromethyl)cyclopropyl]-1H,5H-[1,4]dithiino[2,3-c:5,6-c′]dipyrrole-1,3,5,7(2H,6H)-tetrone] | 4.03 | – |
| Cn1c(=O)c2sc3c(=O)n(C)c(=O)c3sc2c1=O [Compound 1, 2,6-Dimethyl-1H,5H-[1,4]dithiino[2,3-c:5,6-c′]dipyrrole-1,3,5,7(2H,6H)-tetrone] | 2.32 | – |

tested on: Pyrenophora teres; test: Pyrenophora teres test (barley)/protective; format: in vivo; conditions: protective spray, 1000 ppm active substance, evaluation 8 days after inoculation
Method: Pyrenophora teres Test (Barley)/Protective
To prepare a suitable preparation of active substance, 1 part by weight of active substance is mixed with the stated amounts of solvent and emulsifier, and the concentrate is diluted with water to the desired concentration.
To test for protective activity, young plants are sprayed with the active substance preparation at the application rate detailed. After the spray coating has dried on, the plants are sprayed with a spore suspension of Pyrenophora teres. The plants remain in an incubation cabinet for 48 hours at 20° C. and 100% relative atmospheric humidity. The plants are placed in a greenhouse at a temperature of approximately 20° C. and a relative atmospheric humidity of approximately 80%.
Evaluation is carried out 8 days after the inoculation. 0% means an efficacy which corresponds to that of the control, while an efficacy of 100% means that no disease is observed.

| Compound | efficacy [%] |
| --- | --- |
| Cn1c(=O)c2sc3c(=O)n(C)c(=O)c3sc2c1=O [Compound 1, 2,6-Dimethyl-1H,5H-[1,4]dithiino[2,3-c:5,6-c′]dipyrrole-1,3,5,7(2H,6H)-tetrone] | ≥ 70 |
